A short description of data set [1]: Drug release kinetics of Timolol and ethacrynic acid prodrugs from polymer microparticles. In kind it is physicochemical. To be noted: microparticles; 78/22(PLA 5A/PLGA8515 4.5A) and 65/20/15(PLA 4A/PLGA6515 4.5A/PLGA5050 4A) polymer blends; FIG. 5. The procedure: The effect of polymer composition including monomer ratio and molecular weight, polymer end-groups (ester or acid), inherent viscosity and polymer blend ratios on particle degradation and drug release kinetics of Timolol-O-ethyl fumurate (17) was evaluated and is illustrated in FIG. 5. The rate of particle degradation was slowed and drug release was prolonged when the mole % of DL-lactide over glycolide was increased. By incorporating polymers with different monomer ratios (i.e., PLA, PLGA8515, PLGA525, PLGA5050 wherein 8515 refers to 85% DL-lactide and 15% glycolide) into the particles, it is possible to fine-tune the degradation rate of the particles to achieve a linear rate of drug release from the particles to minimize burst or lag and to extend the duration of release. […] The 78/22(PLA 5A/PLGA8515 4.5A) and 65/20/15(PLA 4A/PLGA6515 4.5A/PLGA5050 4A) polymer blends generated ideal particles for a 3-6 month linear release formulation. […] The rate of release was independent of the salt form. […] Thus, release rate is not solely dictated by the physicochemical properties of the linker, but rather must be attributed to a combination of parameters that may include linker type and site of linker conjugation.
FIG. 6 illustrates the release kinetics of ethacrynic acid-PLA(n=4)-ethyl ester (1) from PLGA microparticles. The drug was released over a period of approximately 66 days.
FIG. 8 and FIG. 9 illustrate the release kinetics of ethacrynic acid-PLA(n=4)-ethyl ester (1) and ethacrynic acid-PLA(n=6)-ethyl ester (25), respectively, from PLGA microparticles. The drug was released from a number of formulations over a period of greater than 90 days. […] Particles generated with 1% PVA in PBS was compared against particles generated in 1% PVA in water (FIG. 10).
Based upon these initial formulation screens, the formulation comprising of 1% mPEG-PLGA and 99% PLA100 4.5A:PLGA8515 5A (77:22) was selected as the lead formulation for ECA-PLA(n=4) (1) and ECA-PLA(n=6) (25) prodrugs. The particles were prepared in 1% PVA in water. The release profiles for the lead ECA-PLA(n=4) (1) and ECA-PLA(=6) (25) particle formulations are illustrated in FIG. 11.

Data set [2] in a line: Drug solubility in water, DMSO and DCM (HPLC of filtered supernatant). Conditions: for solubility: thermodynamic from solid; for Solubility Water: 50 mg/mL target concentration.
Procedure: For each test, approximately 5-10 mg was transferred to a 10 mL glass vial. Aqueous or organic solvent was added to each vial to achieve an overall concentration of 50 mg/mL. After vortexing aggressively for 2-3 minutes and sonicating in a bath sonicator for 5 minutes, undissolved drug was spun down at 1200 rpm for 5 minutes to generate a pellet. The supernatant was collected and filtered through a 0.2 μm nylon syringe filter into HPLC vials for drug content analysis. Drug concentration was determined by comparing against a standard calibration curve.
The nature of data set [3]: In vitro drug release kinetics of Timolol prodrug microparticles in PBS and 1% Tween 20 (pH 7.4) at 37° C. Conditions: PBS and 1% Tween 20 (pH 7.4), 37° C. In kind it is physicochemical. The procedure:
In vitro drug release kinetics were evaluated in a release medium composed of PBS and 1% Tween 20 (pH 7.4). Briefly, 10 mg of particles was suspended in 4 mL of the release medium The particle suspension was incubated on an orbital shaker at 150 rpm at 37° C. At various time points, 3 mL of release media was collected, and the suspension was replenished with 3 mL of fresh release media. Collected release samples were frozen and stored at −80° C. until analysis for drug content. The collected samples were filtered through a 0.2 μm syringe filter and analyzed by RP-HPLC. FIG. 17-FIG. 22 illustrate the total and parent Timolol release profile for the microparticles encapsulating bis-prodrugs of Timolol of Table 11.

The nature of data set [4]: In vitro stability of ethacrynic acid prodrugs at 37° C. It counts as physicochemical. The text has this: As evidenced, both prodrugs of ethacrynic acid degrade steadily over the 6 day period. As the ester linkages are hydrolyzed, the parent compound is generated in a linear rate. The rate of degradation to the parent compound is faster for the shorter […] in comparison to the degradation kinetics for ethacrynic acid-PLA(n=4)-ethyl ester (1).
Approximately 94% of the ECA-PLA(n=4) prodrug (1) has been converted to free ECA by day 6, in comparison to only 56% for ECA-PLA(n=6) (25). Also, by day 6, all the initial prodrug has been degraded into intermediates and free drug respectively.

[5] abbreviates: DMSO, organic solvent or mixture.
The mark [6] stands for this setting: DCM, organic solvent or mixture.

One may read the solubility as the concentration that dissolves in the medium under given conditions.

“Also recorded” adds a separate entry of the source. Where a name gives a salt, the structure may show the parent alone. Bounds are passed on as bounds.

With `CCOC(=O)/C=C/C(=O)O[C@@H](CNC(C)(C)C)COc1nsnc1N1CCOCC1` [Compound 17, Timolol-O-Ethylfumurate], the linear release profile in data set [1] is 3-6 month. Also, in data set [2] (setting [5]), the solubility is more than 50 mg/mL. Besides, in data set [2] (water), the solubility is less than 1 mg/mL and the “Solubility Water” value is less than 1.0 mg/mL.
“Dorzolamide-Stearylfumurate [Compound 15]”: the “Solubility DMSO” value in data set [2] (DMSO) is listed as more than 100 mg/mL. Also, the “Solubility Water” value in data set [2] (water) is more than 50 mg/mL.
Turning to `CCOC(=O)CCC(=O)O[C@@H](CNC(C)(C)C)COc1nsnc1N1CCOCC1.Cl` [Compound 6, Timolol-O-Ethylsuccinate HCL], the solubility is more than 50 mg/mL in data set [2] (setting [5]) and 6.25 mg/mL in data set [2] (water).
In the case of `CCOC(=O)/C=C\C(=O)OC(CNC(C)(C)C)COc1nsnc1N1CCOCC1` (stereo not shown) [Compound 18, Timolol-O-Ethyl Maleate], the solubility in data set [2] (setting [5]) is more than 100 mg/mL; in data set [2] (water) it was more than 25 mg/mL.
For `C=C(CC)C(=O)c1ccc(OCC(=O)O[C@@H](C)C(=O)O[C@@H](C)C(=O)O[C@@H](C)C(=O)O[C@@H](C)C(=O)O[C@@H](C)C(=O)O[C@@H](C)C(=O)O[C@@H](C)C(=O)O[C@@H](C)C(=O)OCC)c(Cl)c1Cl` [Compound 26], the solubility was more than 50 mg/mL in data set [2] (setting [5]) and less than 0.1 mg/mL in data set [2] (water).
Taken in the same sequence, the figures for `CCOC(=O)/C=C\C(=O)O[C@@H](CNC(C)(C)C)COc1nsnc1N1CCOCC1.O=C(O)/C=C\C(=O)O` [Compound 8, Timolol-O-Ethylmaleate-Maleic Acid] were more than 50 mg/mL and less than 1 mg/mL.
Taken in the same sequence, the figures for `CCCCCCCCCCCCOC(=O)/C=C/C(=O)O[C@@H](CNC(C)(C)C)COc1nsnc1N1CCOCC1` [Compound 12, Timolol-O-Laurylfumurate-Maleate] were more than 100 mg/mL and less than 1 mg/mL.
Taken in the same sequence, the figures for `CC(C)(C)NC[C@@H](COc1nsnc1N1CCOCC1)OC(=O)CCC(=O)O` [Compound 4, Succinic acid mono-[(S)-1-(tert-butylamino-methyl)-2-(4-morpholin-4-yl-[1,2,5]thiadiazol-3-yloxy)-ethyl] ester] were more than 50 mg/mL and more than 50 mg/mL.
Turning to `CC(=O)OC(C)C(=O)OC(C)C(=O)OC(C)C(=O)OC(C)C(=O)N(C[C@@H](COc1nsnc1N1CCOCC1)OC(=O)C(C)OC(=O)C(C)OC(C)=O)C(C)(C)C` (stereo partly shown) [Compound 55, Timolol-Bis-N-Acetyl-PLA (n = 4)-O-Acetyl PLA (n = 2)], in data set [3], the “parent Timolol released relative to total release of prodrug and intermediates” value is recorded as “significantly less”.
Regarding `CC(C)(C)NC[C@@H](COc1nsnc1N1CCOCC1)OC(=O)/C=C\C(=O)O` [Compound 7, Timolol-O-Maleate], the solubility in data set [2] (setting [5]) and in data set [2] (water) was more than 50 mg/mL in each case.
Turning to “Timolol-Bis-Acetyl PLA (n = 4) [Compound 54]”, the “parent Timolol released relative to total release of prodrug and intermediates” value in data set [3] is listed as “significantly less”.
For the molecule `CC(=O)OC(C)C(=O)OC(C)C(=O)OC(C)C(=O)OC(C)C(=O)O[C@H](COc1nsnc1N1CCOCC1)CN(C(=O)C(C)OC(=O)C(C)OC(C)=O)C(C)(C)C` (stereo partly shown) [Compound 56, Timolol-Bis-N-Acetyl-PLA (n = 2)-O-Acetyl-PLA (n = 4)], the “parent Timolol released relative to total release of prodrug and intermediates” value in data set [3] is “significantly less”.
Consider Dorzolamide-Laurylmaleate [Compound 16], for which the “Solubility DMSO” value in data set [2] (DMSO) is reported as more than 50 mg/mL. Besides, the “Solubility Water” value in data set [2] (water) is given as less than 1.0 mg/mL.
Consider `C=C(CC)C(=O)c1ccc(OCC(=O)O[C@@H](C)C(=O)O[C@@H](C)C(=O)OCC)c(Cl)c1Cl` [Compound 2, 2-{2-[2,3-Dichloro-4-(2-methylene-butyryl)-phenoxy]-acetoxy}-propionic acid 1-ethoxycarbonyl-ethyl ester], for which the solubility in data set [2] (setting [5]) is more than 50 mg/mL; in data set [2] (water), less than 1 mg/mL. The “generation of parent ethacrynic acid as ester linkages are hydrolyzed” value in data set [4] (37° C. over 6 days) was “generated at a linear rate”. The “rate of degradation to the parent compound / conversion to the free drug” value in data set [4] (37° C., 6 days, comparison between prodrugs) is “degraded faster; also recorded: significantly faster”.
Turning to `CCN[C@H]1C[C@H](C)S(=O)(=O)c2sc(S(N)(=O)=O)cc21` [Dorzolamide, reference compound], the solubility in data set [2] (setting [6]) was less than 1 mg/mL; in data set [2] (setting [5]) it was less than 1 mg/mL; in data set [2] (water), more than 50 mg/mL.
Take `CCN[C@H]1C[C@H](C)S(=O)(=O)c2sc(S(=O)(=O)NC(=O)/C=C/C(=O)OCC)cc21` [Compound 14, Dorzolamide-Ethylfumurate]: the solubility in data set [2] (setting [6]) is more than 100 mg/mL; in data set [2] (setting [5]), more than 100 mg/mL; in data set [2] (water), less than 1 mg/mL.
`CCOC(=O)CCC(=O)O[C@@H](CNC(C)(C)C)COc1nsnc1N1CCOCC1.O=C(O)/C=C\C(=O)O` [Compound 5, Timolol-O-Ethylsuccinate Maleate]: the solubility in data set [2] (setting [5]) was more than 50 mg/mL; in data set [2] (water) it was 12.5 mg/mL.

The record behind these values is US20200308162A1, “DRUGS AND COMPOSITIONS FOR OCULAR DELIVERY” (Graybug Vision, Inc., priority 2017, published 2020).
